According to patent US9890166B2, “Imidazopyrrolidine derivatives and their use in the treatment of disease” (NOVARTIS AG, priority 2013, dated 2018):
Each block holds one compound with its values, some of them ahead of it.

Key:
BRD4 (His-Brd4(44-477)) = BRD4 (His-Brd4(44-477)) (Homo sapiens (Human), UniProt O60885); assay: TR-FRET in-vitro binding assay for BRD4; conditions: single determination or n ≧ 2 independent determinations, read-out: Biochemical IC50 BRD4
In short: (§1)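 TR-FRET binding with His-tagged bromodomain constructs, 8-point compound dilutions from 10 mM DMSO stocks. Reactions incubated 35 min at 30° C in 13.55 μL, read on an EnVision multilabel reader.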

BRD2 (His-Brd2(60-472)) = BRD2 (His-Brd2(60-472)) (Homo sapiens (Human), UniProt P25440); assay: TR-FRET in-vitro binding assay for BRD2; conditions: single determination or n ≧ 2 independent determinations, read-out: Biochemical IC50 BRD2
In short: as §1

BRD3 (His-Brd3(20-477)) = BRD3 (His-Brd3(20-477)) (Homo sapiens (Human), UniProt Q15059); assay: TR-FRET in-vitro binding assay for BRD3; conditions: single determination or n ≧ 2 independent determinations, read-out: Biochemical IC50 BRD3
In short: as §1

[1] = target: CREBBP bromodomain (His-CREBBP(1081-1197)) (Homo sapiens (Human), UniProt Q92793); assay: AlphaScreen in-vitro binding assay for CREBBP; conditions: single determination or n ≧ 2 independent determinations, read-out: Biochemical IC50 CREBBP
In short: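 Reactions at 30 °C for 35 min, then Ni-chelate acceptor and streptavidin donor beads in HEPES pH 7.5, NaCl, Tween20, BSA, 60 min at room temperature. Eight-point compound series; IC50 by non-linear regression of percent inhibition.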

THP-1 cells = assay: Cell growth inhibition assay (CellTiter-Glo), THP-1; conditions: for GI50: Homo sapiens, THP-1, read-out: THP-1 GI50; for THP-1 TGI: THP-1 cells, total growth inhibition, CellTiter-Glo;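 for all read-outs here: viability read as cellular ATP luminescence after 4 days, 3-fold dilution series from 10 µM, DMSO vehicle-treated cells taken as 100%, cell-free medium wells as −100%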
K-562 cells = assay: Cell growth inhibition assay (CellTiter-Glo), K-562; conditions: for GI50: Homo sapiens, K562, read-out: K-562 GI50; for K-562 TGI: K-562 cells, total growth inhibition, CellTiter-Glo;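 for all read-outs here: cellular ATP measured by luminescence after 4 days of exposure, 3-fold dilution series from 10 µM, DMSO vehicle-treated cells define 100%, cell-free medium wells −100%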
MV-4-11 cells = assay: Cell growth inhibition assay (CellTiter-Glo), MV-4-11; conditions: for GI50: Homo sapiens, MV4-11, read-out: MV-4-11 GI50; for MV-4-11 TGI: MV-4-11 cells, total growth inhibition, CellTiter-Glo;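 for all read-outs here: cellular ATP luminescence after 4 days, 3-fold dilution series from 10 µM top dose, vehicle (0.1% DMSO) set to 100%, cell-free medium set to −100%, day 0 corrected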

Chain of BRD3 (His-Brd3(20-477)) (Q15059 20-477): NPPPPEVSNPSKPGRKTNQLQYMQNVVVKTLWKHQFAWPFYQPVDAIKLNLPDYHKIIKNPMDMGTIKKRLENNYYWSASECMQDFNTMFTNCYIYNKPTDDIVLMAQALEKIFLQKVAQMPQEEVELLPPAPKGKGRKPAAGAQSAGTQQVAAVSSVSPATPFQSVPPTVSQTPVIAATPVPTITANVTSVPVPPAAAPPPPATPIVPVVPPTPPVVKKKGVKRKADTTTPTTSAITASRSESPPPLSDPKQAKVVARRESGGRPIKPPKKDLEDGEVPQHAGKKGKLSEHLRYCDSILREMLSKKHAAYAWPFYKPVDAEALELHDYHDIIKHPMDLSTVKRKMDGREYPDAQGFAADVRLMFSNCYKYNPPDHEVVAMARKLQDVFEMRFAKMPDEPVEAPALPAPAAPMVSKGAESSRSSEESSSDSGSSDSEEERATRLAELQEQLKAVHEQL
Chain of BRD2 (His-Brd2(60-472)) (P25440 60-472): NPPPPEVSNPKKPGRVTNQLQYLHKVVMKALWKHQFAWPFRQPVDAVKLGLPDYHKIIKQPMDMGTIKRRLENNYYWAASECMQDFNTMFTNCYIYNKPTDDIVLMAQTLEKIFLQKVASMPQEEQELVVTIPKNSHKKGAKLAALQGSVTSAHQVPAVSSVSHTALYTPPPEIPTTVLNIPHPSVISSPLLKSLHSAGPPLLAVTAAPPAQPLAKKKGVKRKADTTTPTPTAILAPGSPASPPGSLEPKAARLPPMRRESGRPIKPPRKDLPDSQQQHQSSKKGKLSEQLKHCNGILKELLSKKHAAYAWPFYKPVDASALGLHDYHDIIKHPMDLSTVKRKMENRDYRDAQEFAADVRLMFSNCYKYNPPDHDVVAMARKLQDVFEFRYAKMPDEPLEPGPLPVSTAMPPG
Chain of CREBBP bromodomain (His-CREBBP(1081-1197)) (Q92793 1081-1197): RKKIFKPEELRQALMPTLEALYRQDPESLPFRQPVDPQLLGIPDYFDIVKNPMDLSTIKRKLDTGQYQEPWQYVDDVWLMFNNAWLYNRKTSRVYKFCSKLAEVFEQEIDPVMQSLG

SMILES: COc1ncc(-c2nc3c(n2C(C)C)C(c2ccc(Cl)cc2)N(c2cc(C)c4nnc(C(F)F)n4c2)C3=O)c(OC)n1 (stereo not drawn) [Example 143, 6-(4-chlorophenyl)-5-(3-(difluoromethyl)-8-methyl-[1,2,4]triazolo[4,3-a]pyridin-6-yl)-2-(2,4-dimethoxypyrimidin-5-yl)-1-isopropyl-5,6-dihydropyrrolo[3,4-d]imidazol-4(1H)-one]
- IC50 (BRD4 (His-Brd4(44-477))): 19 nM
- IC50 (BRD2 (His-Brd2(60-472))): 34 nM
- IC50 (BRD3 (His-Brd3(20-477))): 18 nM
- IC50 [1]: > 37 µM
- GI50 (THP-1 cells): 11.3 nM
- THP-1 TGI (THP-1 cells): 0.03065 µM
- GI50 (K-562 cells): 44 nM
- K-562 TGI (K-562 cells): >10 µM
- GI50 (MV-4-11 cells): 9.19 nM
- MV-4-11 TGI (MV-4-11 cells): 0.0161 µM

SMILES: COc1cc(C(F)(F)F)ccc1-c1nc2c(n1C(C)C)C(c1ccc(Cl)cc1)N(c1cc(C)c3nnc(C(F)F)n3c1)C2=O (stereo not drawn) [Example 144, 6-(4-chlorophenyl)-5-(3-(difluoromethyl)-8-methyl-[1,2,4]triazolo[4,3-a]pyridin-6-yl)-1-isopropyl-2-(2-methoxy-4-(trifluoromethyl)phenyl)-5,6-dihydropyrrolo[3,4-d]imidazol-4(1H)-one]
- IC50 (BRD4 (His-Brd4(44-477))): 23 nM
- IC50 (BRD2 (His-Brd2(60-472))): 26 nM
- IC50 (BRD3 (His-Brd3(20-477))): 22 nM
- IC50 [1]: > 37 µM
- GI50 (THP-1 cells): 46.2 nM
- THP-1 TGI (THP-1 cells): 0.09295 µM
- GI50 (K-562 cells): 116 nM
- K-562 TGI (K-562 cells): >10 µM
- GI50 (MV-4-11 cells): 30.8 nM
- MV-4-11 TGI (MV-4-11 cells): 0.0469 µM

SMILES: Cc1cc(N2C(=O)c3nc(C4CC4)n(C(C)C)c3C2c2ccc(Cl)cc2)cn2c(C(F)F)nnc12 (stereo not drawn) [Example 145, 6-(4-chlorophenyl)-2-cyclopropyl-5-(3-(difluoromethyl)-8-methyl-[1,2,4]triazolo[4,3-a]pyridin-6-yl)-1-isopropyl-5,6-dihydropyrrolo[3,4-d]imidazol-4(1H)-one]
- IC50 (BRD4 (His-Brd4(44-477))): 28 nM
- IC50 (BRD2 (His-Brd2(60-472))): 54 nM
- IC50 (BRD3 (His-Brd3(20-477))): 29 nM
- IC50 [1]: > 37 µM
- GI50 (THP-1 cells): 22.2 nM
- THP-1 TGI (THP-1 cells): 0.0476 µM
- GI50 (K-562 cells): 70.2 nM
- K-562 TGI (K-562 cells): >10 µM
- GI50 (MV-4-11 cells): 14 nM
- MV-4-11 TGI (MV-4-11 cells): 0.02695 µM

Further lines, with some results ahead:

- IC50 (BRD4 (His-Brd4(44-477))): < 11 nM
- IC50 (BRD2 (His-Brd2(60-472))): 20 nM
- IC50 (BRD3 (His-Brd3(20-477))): 12 nM
- IC50 [1]: > 37 µM
- GI50 (THP-1 cells): 11 nM
- GI50 (K-562 cells): 46.9 nM
- GI50 (MV-4-11 cells): 9.57 nM
SMILES: Cc1cc(N2C(=O)c3nc(C)n(C(C)C)c3[C@H]2c2ccc(Cl)cc2)cn2c(C(F)F)nnc12 [Example 146, (R)-6-(4-chlorophenyl)-5-(3-(difluoromethyl)-8-methyl-[1,2,4]triazolo[4,3-a]pyridin-6-yl)-1-isopropyl-2-methyl-5,6-dihydropyrrolo[3,4-d]imidazol-4(1H)-one]
- THP-1 TGI (THP-1 cells): 0.02975 µM
- K-562 TGI (K-562 cells): >10 µM
- MV-4-11 TGI (MV-4-11 cells): 0.01505 µM

- IC50 (BRD4 (His-Brd4(44-477))): 13 nM
- IC50 (BRD2 (His-Brd2(60-472))): 60 nM
- IC50 (BRD3 (His-Brd3(20-477))): 44 nM
- IC50 [1]: 34.3 µM
- GI50 (THP-1 cells): 11.8 nM
- GI50 (K-562 cells): 52 nM
- GI50 (MV-4-11 cells): 8.12 nM
SMILES: Cc1cc(N2C(=O)c3nc(C4=CCOCC4)n(C(C)C)c3C2c2ccc(Cl)cc2)cn2c(C(F)F)nnc12 (stereo not drawn) [Example 147, 6-(4-chlorophenyl)-5-(3-(difluoromethyl)-8-methyl-[1,2,4]triazolo[4,3-a]pyridin-6-yl)-2-(3,6-dihydro-2H-pyran-4-yl)-1-isopropyl-5,6-dihydropyrrolo[3,4-d]imidazol-4(1H)-one]
- THP-1 TGI (THP-1 cells): 0.03355 µM
- K-562 TGI (K-562 cells): >10 µM
- MV-4-11 TGI (MV-4-11 cells): 0.01625 µM

- IC50 (BRD4 (His-Brd4(44-477))): 23 nM
- IC50 (BRD2 (His-Brd2(60-472))): 36 nM
- IC50 (BRD3 (His-Brd3(20-477))): 22 nM
- IC50 [1]: > 37 µM
- GI50 (THP-1 cells): 9.99 nM
- GI50 (K-562 cells): 69.5 nM
- GI50 (MV-4-11 cells): 6.47 nM
SMILES: COc1ncccc1-c1nc2c(n1C(C)C)C(c1ccc(Cl)cc1)N(c1cc(C)c3nnc(C(F)F)n3n1)C2=O (stereo not drawn) [Example 148, 6-(4-chlorophenyl)-5-(3-(difluoromethyl)-8-methyl-[1,2,4]triazolo[4,3-b]pyridazin-6-yl)-1-isopropyl-2-(2-methoxypyridin-3-yl)-5,6-dihydropyrrolo[3,4-d]imidazol-4(1H)-one]
- THP-1 TGI (THP-1 cells): 0.02495 µM
- K-562 TGI (K-562 cells): >10 µM
- MV-4-11 TGI (MV-4-11 cells): 0.0131 µM
